Tests used:
Assay type in all cases: in vivo
[1] = system: barnyardgrass (Echinochloa crus-galli); assay: Test A postemergence, barnyardgrass; settings: 0 to 100 scale (0 no effect, 100 complete control), approx. 10 d
From the text: (§1) Seeds of plant species selected from barnyardgrass (Echinochloa crus-galli), kochia (Kochia scoparia), ragweed (common ragweed, Ambrosia elatior), ryegrass, Italian (Italian ryegrass, Lolium multiflorum), foxtail, green (green foxtail, Setaria viridis), and pigweed (Amaranthus retroflexus) were planted into a blend of loam soil and sand and treated preemergence with a directed soil spray using test chemicals formulated in a non-phytotoxic solvent mixture which included a surfactant. At the same time, plants selected from these weed species and also wheat (Triticum aestivum), corn (Zea mays), blackgrass (Alopecurus myosuroides), and galium (catchweed bedstraw, Galium aparine) were planted in pots containing the same blend of loam soil and sand and treated with postemergence applications of test chemicals formulated in the same manner. Plants ranged in height from 2 to 10 cm and were in the one- to two-leaf stage for the postemergence treatment. Treated plants and untreated controls were maintained in a greenhouse for approximately 10 d, after which time all treated plants were compared to untreated controls and visually evaluated for injury. Plant response ratings, summarized in Table A, are based on a 0 to 100 scale where 0 is no effect and 100 is complete control. A dash (-) response means no test result.

kochia (Kochia scoparia) [2] = assay: Test A postemergence, kochia; settings: 0 to 100 scale (0 no effect, 100 complete control), approx. 10 d
From the text: as §1

[3] = system: ragweed (common ragweed, Ambrosia elatior); assay: Test A postemergence, ragweed; settings: 0 to 100 scale (0 no effect, 100 complete control), approx. 10 d
From the text: as §1

[4] = system: ryegrass, Italian (Italian ryegrass, Lolium multiflorum); assay: Test A postemergence, Italian ryegrass; settings: 0 to 100 scale (0 no effect, 100 complete control), approx. 10 d
From the text: as §1

[5] = system: foxtail, green (green foxtail, Setaria viridis); assay: Test A postemergence, green foxtail; settings: 0 to 100 scale (0 no effect, 100 complete control), approx. 10 d
From the text: as §1

[6] = system: pigweed (Amaranthus retroflexus); assay: Test A postemergence, pigweed; settings: 0 to 100 scale (0 no effect, 100 complete control), approx. 10 d
From the text: as §1

[7] = system: wheat (Triticum aestivum); assay: Test A postemergence, wheat; settings: 0 to 100 scale (0 no effect, 100 complete control), approx. 10 d
From the text: as §1

corn (Zea mays) = assay: Test A postemergence, corn; settings: 0 to 100 scale (0 no effect, 100 complete control), approx. 10 d
From the text: as §1

[8] = system: blackgrass (Alopecurus myosuroides); assay: Test A postemergence, blackgrass; settings: 0 to 100 scale (0 no effect, 100 complete control), approx. 10 d
From the text: as §1

[9] = system: galium (catchweed bedstraw, Galium aparine); assay: Test A postemergence, galium; settings: 0 to 100 scale (0 no effect, 100 complete control), approx. 10 d
From the text: as §1

[10] = system: barnyardgrass (Echinochloa crus-galli); assay: Test A preemergence, barnyardgrass; settings: 0 to 100 scale (0 no effect, 100 complete control), approx. 10 d
From the text: as §1

kochia (Kochia scoparia) [11] = assay: Test A preemergence, kochia; settings: 0 to 100 scale (0 no effect, 100 complete control), approx. 10 d
From the text: as §1

[12] = system: ragweed (common ragweed, Ambrosia elatior); assay: Test A preemergence, ragweed; settings: 0 to 100 scale (0 no effect, 100 complete control), approx. 10 d
From the text: as §1

[13] = system: ryegrass, Italian (Italian ryegrass, Lolium multiflorum); assay: Test A preemergence, Italian ryegrass; settings: 0 to 100 scale (0 no effect, 100 complete control), approx. 10 d
From the text: as §1

[14] = system: foxtail, green (green foxtail, Setaria viridis); assay: Test A preemergence, green foxtail; settings: 0 to 100 scale (0 no effect, 100 complete control), approx. 10 d
From the text: as §1

[15] = system: pigweed (Amaranthus retroflexus); assay: Test A preemergence, pigweed; settings: 0 to 100 scale (0 no effect, 100 complete control), approx. 10 d
From the text: as §1

[16] = system: barnyardgrass (Echinochloa crus-galli); assay: Test B flooded paddy test, barnyardgrass; settings: Flood, 250 g ai/ha; applied to paddy water at 2-leaf stage; visual rating after 13 to 15 d; scale 0 to 100, 0 is no effect, 100 is complete control
Method: (§2) Plant species in the flooded paddy test selected from rice (Oryza sativa), sedge, umbrella (small-flower umbrella sedge, Cyperus difformis), ducksalad (Heteranthera limosa), and barnyardgrass (Echinochloa crus-galli) were grown to the 2-leaf stage for testing. At time of treatment, test pots were flooded to 3 cm above the soil surface, treated by application of test compounds directly to the paddy water, and then maintained at that water depth for the duration of the test. Treated plants and controls were maintained in a greenhouse for 13 to 15 d, after which time all species were compared to controls and visually evaluated. Plant response ratings, summarized in Table B, are based on a scale of 0 to 100 where 0 is no effect and 100 is complete control. A dash (-) response means no test result.

[17] = system: ducksalad (Heteranthera limosa); assay: Test B flooded paddy test, ducksalad; settings: Flood, 250 g ai/ha; applied to paddy water at 2-leaf stage; visual rating after 13 to 15 d; scale 0 to 100, 0 is no effect, 100 is complete control
Method: as §2

rice (Oryza sativa) = assay: Test B flooded paddy test, rice; settings: Flood, 250 g ai/ha; applied to paddy water at 2-leaf stage; visual rating after 13 to 15 d; scale 0 to 100, 0 is no effect, 100 is complete control
Method: as §2

[18] = system: sedge, umbrella (small-flower umbrella sedge, Cyperus difformis); assay: Test B flooded paddy test, umbrella sedge; settings: Flood, 250 g ai/ha; applied to paddy water at 2-leaf stage; visual rating after 13 to 15 d; scale 0 to 100, 0 is no effect, 100 is complete control
Method: as §2

Molecule	Plant response rating, Barnyardgrass ([1]; 31 g ai/ha)	Plant response rating, Barnyardgrass ([1]; 125 g ai/ha)	Plant response rating, Kochia (kochia (Kochia scoparia) [2]; 31 g ai/ha)	Plant response rating, Kochia (kochia (Kochia scoparia) [2]; 125 g ai/ha)	Plant response rating, Ragweed ([3]; 31 g ai/ha)	Plant response rating, Ragweed ([3]; 125 g ai/ha)	Plant response rating, Ryegrass, Italian ([4]; 31 g ai/ha)	Plant response rating, Ryegrass, Italian ([4]; 125 g ai/ha)	Plant response rating, Foxtail, Green ([5]; 31 g ai/ha)	Plant response rating, Foxtail, Green ([5]; 125 g ai/ha)	Plant response rating, Pigweed ([6]; 31 g ai/ha)	Plant response rating, Pigweed ([6]; 125 g ai/ha)	Plant response rating, Wheat ([7]; 31 g ai/ha)	Plant response rating, Wheat ([7]; 125 g ai/ha)	Plant response rating, Corn (corn (Zea mays); 31 g ai/ha)	Plant response rating, Corn (corn (Zea mays); 125 g ai/ha)	Plant response rating, Blackgrass ([8]; 31 g ai/ha)	Plant response rating, Blackgrass ([8]; 125 g ai/ha)	Plant response rating, Galium ([9]; 31 g ai/ha)	Plant response rating, Galium ([9]; 125 g ai/ha)	other results
CN1C[C@H](c2ccc(C(F)(F)F)cc2)[C@@](CO)(C(=O)Nc2cccc(F)c2F)C1=O [Compound 5, (3R,4R)—N-(2,3-difluorophenyl)-3-(hydroxymethyl)-1-methyl-2-oxo-4-[4-(trifluoromethyl)phenyl]-3-pyrrolidinecarboxamide]	30	80	30	70	0	40	20	50	30	80	30	50	0	30	0	60	0	30	40	40	Plant response rating, Barnyardgrass ([10]; 31 g ai/ha): 80; Plant response rating, Barnyardgrass ([10]; 125 g ai/ha): 90; Plant response rating, Kochia (kochia (Kochia scoparia) [11]; 31 g ai/ha): 0; Plant response rating, Kochia (kochia (Kochia scoparia) [11]; 125 g ai/ha): 60; Plant response rating, Ragweed ([12]; 31 g ai/ha): 0; Plant response rating, Ragweed ([12]; 125 g ai/ha): 60; Plant response rating, Ryegrass, Italian ([13]; 31 g ai/ha): 10; Plant response rating, Ryegrass, Italian ([13]; 125 g ai/ha): 80; Plant response rating, Foxtail, Green ([14]; 31 g ai/ha): 70; Plant response rating, Foxtail, Green ([14]; 125 g ai/ha): 90; Plant response rating, Pigweed ([15]; 31 g ai/ha): 0; Plant response rating, Pigweed ([15]; 125 g ai/ha): 60; Plant response rating, Barnyardgrass [16]: 65; Plant response rating, Ducksalad [17]: 90; Plant response rating, Rice (rice (Oryza sativa)): 25; Plant response rating, Sedge, Umbrella [18]: 0
(3S,4R)-3-acetyl-N-(2,3-difluorophenyl)-1-methyl-2-oxo-4-[4-(trifluoromethyl)phenyl]-3-pyrrolidinecarboxamide [Compound 3]	40	70	0	60	0	40	40	50	0	60	40	60	0	40	10	80	20	30	40	50	Plant response rating, Barnyardgrass ([10]; 31 g ai/ha): 80; Plant response rating, Barnyardgrass ([10]; 125 g ai/ha): 90; Plant response rating, Kochia (kochia (Kochia scoparia) [11]; 31 g ai/ha): 0; Plant response rating, Kochia (kochia (Kochia scoparia) [11]; 125 g ai/ha): 50; Plant response rating, Ragweed ([12]; 31 g ai/ha): 0; Plant response rating, Ragweed ([12]; 125 g ai/ha): 20; Plant response rating, Ryegrass, Italian ([13]; 31 g ai/ha): 20; Plant response rating, Ryegrass, Italian ([13]; 125 g ai/ha): 40; Plant response rating, Foxtail, Green ([14]; 31 g ai/ha): 90; Plant response rating, Foxtail, Green ([14]; 125 g ai/ha): 90; Plant response rating, Pigweed ([15]; 31 g ai/ha): 20; Plant response rating, Pigweed ([15]; 125 g ai/ha): 100; Plant response rating, Barnyardgrass [16]: 45; Plant response rating, Ducksalad [17]: 80; Plant response rating, Rice (rice (Oryza sativa)): 10; Plant response rating, Sedge, Umbrella [18]: 0
CN1C[C@H](c2ccc(C(F)(F)F)cc2)[C@](CO)(C(=O)Nc2cccc(F)c2F)C1=O [Compound 4, (3S,4R)—N-(2,3-difluorophenyl)-3-(hydroxymethyl)-1-methyl-2-oxo-4-[4-(trifluoromethyl)phenyl]-3-pyrrolidinecarboxamide]	0	60	0	60	0	0	0	50	10	60	30	70	0	20	0	50	0	40	20	40	Plant response rating, Barnyardgrass ([10]; 31 g ai/ha): 30; Plant response rating, Barnyardgrass ([10]; 125 g ai/ha): 90; Plant response rating, Kochia (kochia (Kochia scoparia) [11]; 31 g ai/ha): 0; Plant response rating, Kochia (kochia (Kochia scoparia) [11]; 125 g ai/ha): 40; Plant response rating, Ragweed ([12]; 31 g ai/ha): 0; Plant response rating, Ragweed ([12]; 125 g ai/ha): 0; Plant response rating, Ryegrass, Italian ([13]; 31 g ai/ha): 0; Plant response rating, Ryegrass, Italian ([13]; 125 g ai/ha): 50; Plant response rating, Foxtail, Green ([14]; 31 g ai/ha): 50; Plant response rating, Foxtail, Green ([14]; 125 g ai/ha): 90; Plant response rating, Pigweed ([15]; 31 g ai/ha): 0; Plant response rating, Pigweed ([15]; 125 g ai/ha): 90; Plant response rating, Barnyardgrass [16]: 50; Plant response rating, Ducksalad [17]: 95; Plant response rating, Rice (rice (Oryza sativa)): 0; Plant response rating, Sedge, Umbrella [18]: 0
CC(C)NC(=O)C1(C(=O)Nc2cccc(F)c2F)C(=O)N(C)CC1c1ccc(C(F)(F)F)cc1 (stereo not drawn) [Compound 8]	0	0	0	0	0	0	0	0	0	0	0	0	0	0	0	0	0	0	0	0	Plant response rating, Barnyardgrass ([10]; 31 g ai/ha): 0; Plant response rating, Barnyardgrass ([10]; 125 g ai/ha): 0; Plant response rating, Kochia (kochia (Kochia scoparia) [11]; 31 g ai/ha): 0; Plant response rating, Kochia (kochia (Kochia scoparia) [11]; 125 g ai/ha): 0; Plant response rating, Ragweed ([12]; 31 g ai/ha): 0; Plant response rating, Ragweed ([12]; 125 g ai/ha): 0; Plant response rating, Ryegrass, Italian ([13]; 31 g ai/ha): 0; Plant response rating, Ryegrass, Italian ([13]; 125 g ai/ha): 0; Plant response rating, Foxtail, Green ([14]; 31 g ai/ha): 0; Plant response rating, Foxtail, Green ([14]; 125 g ai/ha): 0; Plant response rating, Pigweed ([15]; 31 g ai/ha): 0; Plant response rating, Pigweed ([15]; 125 g ai/ha): 0; Plant response rating, Barnyardgrass [16]: 0; Plant response rating, Ducksalad [17]: 0; Plant response rating, Rice (rice (Oryza sativa)): 0; Plant response rating, Sedge, Umbrella [18]: 0
